Patent US9974763B2, “Modulators of intracellular chloride concentration for treating neurodegenerative diseases with Parkinsonian Syndromes” (B & A THERAPEUTICS, priority 2013, dated 2018)
Like-named read-outs stand apart in the source and are kept apart here. Blank lines part the entries; values can stand above or below the compound they belong to.

Legend:
[1] = system: patient suffering from Parkinson's disease; conditions: for UPDRS motor severity score (III) in the OFF stage: after 2 months of bumetanide, last four weeks at 5 mg/d; for UPDRS II OFF (activities of daily leaving, worst condition) score: at the end of the study
Excerpt: A person, suffering from a 10-year history of Parkinson's disease was included in an open-labeled trial assessing the antiparkinsonian effects of bumetanide. They gave their informed consent to participate. The patient fulfilled the modified Queen's Square Brain Bank criteria of Parkinson's disease (Berardelli et al., 2013). […] Parkinson's disease was at the stage of motor fluctuation and dyskinesia. The OFF periods (bad mobility) lasted for an average of 25-50% of the awakened time. Dyskinesia was mild and intermittent. There was no marked balance impairment or cognitive decline. Antiparkinsonian treatment consisted in: L-DOPA 1,200 mg/d (7 intakes/d), ropinirole 4 mg/d, rasagiline 1 mg/d, tolcapone 300 mg/d. They also received mianserine, citalopram and alprazolam for concomitant anxiety and depression. Bumetanide was progressively titrated up to 3 mg/d (once daily) received for a month. […] The patient was assessed before, 1 month and 2 months after the initiation of bumetanide. At each visit, the patient was asked about any side effects having occurred since the last visit. […] The antiparkinsonian treatment was unchanged during the study. A person, having a 8-year history of Parkinson's disease was included in an open-labeled trial assessing the antiparkinsonian effects of bumetanide. The OFF periods (bad mobility) lasted for an average of 25-50% of the awakened time. Antiparkinsonian treatment consisted in: L-DOPA 625 mg/day (5 intakes/day), entacapone 1,000 mg/day, ropinirole 12 mg/day. Bumetanide: was progressively titrated up to 3 mg/day (once daily) received for a month. […] The patients were assessed before, 1 month and 2 months after the initiation of bumetanide. At each visit, the patient was asked about any side effects having occurred since the last visit. […] The antiparkinsonian treatment was unchanged during the study.

[2] = system: GABAA sPSCs in Medium Spiny Neurons (MSNs) of the striatum in Pink 1 knockout mice; assay: Whole-cell voltage-clamp recordings of spontaneous GABAA currents in basal ganglia slices before and during bath application of bumetanide; assay type: cell-based, mouse; conditions: for effect on the giant GABAergic pattern (in words): 10 μM; for area gigantic pattern (% of the total area) / giant GABAA sPSCs share of total current charge, Mean: before bumetanide 38±5%; for Giants Amplitude, Mean: P=0.01 vs before bumetanide
Procedure: Pink 1 knockout (Pink1 −/−) mouse is a genetic model of Parkinson's disease.
Pink1 −/− mutant mice of either sex at age 5-7 months were intracardially perfused with the choline solution (see below) at 4° C. and sacrificed by decapitation under halothane anesthesia. Oblique parasagittal slices (380 μm thick) were cut with an angle of 10±2° to obtain the basal ganglia slice (BGS) as described in (Beurrier et al., 2006). For the slicing procedure, the ice-cold oxygenated solution contained (in mM) 110 choline, 2.5 KCl, 1.25 NaH2PO4, 7 MgCl2, 0.5 CaCl2, 25 NaHCO3, 7 glucose. During the recovery period, BGS were placed at room temperature with standard artificial cerebrospinal fluid (ACSF) saturated with 95% O2 5% CO2 and containing (in mM): 126 NaCl, 3.5 KCl, 1.2 NaH2PO4, 1.3 MgCl2, 2 CaCl2, 25 NaHCO3, 11 glucose.
All recordings were made at 32° C. Cells were visualized with infrared-differential interference optics (Axioskop2, Zeiss). For whole-cell voltage-clamp recordings of postsynaptic GABAA currents, the pipette (6-10 MΩ) contained (in mM): 128.5 K-gluconate, 11.5 KCl, 1 CaCl2, 10 EGTA, 10 HEPES, 2.5 MgATP and 0.3 NaGTP, pH 7.32, 280 mOsm. The KGlu pipette solutions gave a reversal potential for chloride close to −63 mV at 35° C. Biocytin (Sigma, 5 mg/ml) was added to the pipette solution and osmolarity corrected when necessary. We performed patch-clamp recordings in whole cell configuration using the Digidata 1344A interface, the Multiclamp 700A amplifier and PClamp8 software (Axon Instruments, Foster City, Calif.). We identified medium spiny neurons (MSNs) during recordings based on their typical rectification during hyperpolarizing steps and their firing delay in response to depolarizing steps. MSNs were also identified by their morphological characteristics after the recording session (see immunocytochemistry). We measured spontaneous GABAA currents (GABAA sPSCs) from MSNs in voltage clamp mode at the reversal potential for glutamatergic (+10 mV) events (Cossart et al., 2000). These currents were stored on Pclamp8 (Axon Instruments, Foster City, Calif., USA) and analyzed off-line with Mini Analysis program (Synaptosoft 6.0, CA, USA), Clampfit 9.2, Origin 5.0 and Autosignal 1.7 to determine the frequency and amplitude of GABAA sPSCs. All detected currents were then visually inspected to reject artefactual events.
We defined as a burst a minimum of five sPSCs associated with a baseline elevation. More than five giant events and three bursts were required during the three min analysis for the pattern to be deemed “oscillatory”. The current charge was automatically calculated by the Mini Analysis Software as the area under the curve value (taking the onset, peak and decay time points as references for each event).
GABAA sPSCs were recorded from identified MSNs before and during bath application of Bumetanide.
For statistical comparison of data we performed paired t-tests. Error bars indicate SEM. ***P<0.001; ns (non-significant).

[3] = system: GABAA sPSCs in Medium Spiny Neurons (MSNs) of the striatum in Pink 1 knockout mice; conditions: Dehorter et al 2012; cited from earlier work
[4] = bumetanide 10 μM, 15-30 min, Pink1 KO MSNs
[5] = bumetanide 10 μM, 15-30 min, Pink1 KO MSNs, listed as Bume
[6] = bumetanide 10 μM, 15-30 min, n=42 events
[7] = bumetanide 10 μM, 15-30 min, three min analysis

dyskinesia ([1]; human, in vivo): no worsening
Compound: CCCCNc1cc(C(=O)O)cc(S(N)(=O)=O)c1Oc1ccccc1 [Bumetanide, bumetanide]
overall improvement evaluated by the patient and the caregiver ([1]; patient 1): about 30%
improvement (decrease) of UPDRS motor (III) score in the OFF stage ([1]; patient 1, 2 months vs before treatment): 34%
UPDRS motor severity score (III) in the OFF stage ([1]; patient 1, 44 before treatment): 29
motor condition / Parkinsonism as noticed by the patient and their caregiver ([1]; patient 1, after 2 weeks at 5 mg/d): marked improvement
OFF time duration ([1]; patient 1, after 2 weeks at 5 mg/d, baseline 25-50%): less than 25 % of the awakened time
UPDRS II OFF (activities of daily leaving, worst condition) score ([1]; patient 1, 30 at baseline): 18
improvement (decrease) of UPDRS II in the worst condition ([1]; patient 1, end of study vs baseline): 40%
UPDRS II in the best condition ([1]; patient 1, score 0): unchanged
improvement of UPDRS motor severity score (III) in the OFF stage ([1]; patient 2, 2 months vs before treatment): 56%
UPDRS II in the best condition ([1]; patient 2, 2 vs 3): unchanged
UPDRS motor severity score (III) in the OFF stage ([1]; patient 2, 25 before treatment): 11
UPDRS II OFF (activities of daily leaving, worst condition) score ([1]; patient 2, 15 at baseline): 10
improvement of UPDRS II in the worst condition ([1]; patient 2, end of study vs baseline): 33%
effect on the giant GABAergic pattern (in words) ([2]; 15-30 min, Pink1 KO MSNs): blocked the giant pattern
effect on the giant GABAergic pattern (in words) ([2]; 15-30 min, Pink1 KO MSNs, listed as bumetanide): block these gigantic currents completely
time of treatment after which the effect was stable ([2]; bath application, final concentration 10 μM): 15 min
TOTAL AREA, Mean ([2]; bumetanide 10 μM bath, 15-30 min, Pink1 KO MSNs with giant pattern, VH=+10 mV): 290 pA · ms
Pink1 KO MSNs showing giant GABAA PSCs in which the block was observed ([2]; bumetanide 10 μM, 15-30 min): 10/10
effect on bursts of GABAA sPSCs (in words) ([2]; bumetanide 10 μM, 15-30 min): totally disappeared
mean frequency of single giant GABAA sPSCs ([2]; bumetanide 10 μM, 15-30 min, P=0.02 vs before bumetanide): 0.10±0.05 Hz
Tonic pattern: Amplitude of GABAA PSCs, Mean [2, 4]: 36±4 pA
Tonic pattern: Frequency of GABAA PSCs, Mean [2, 4]: 2.9±0.5 Hz
mean total current charge ([2]; bumetanide 10 μM, 15-30 min, Pink1 KO MSNs, before bumetanide 566±74): 290±70 nA·ms
Tonic pattern: Amplitude of GABAA PSCs, Mean [2, 5]: 36.0 pA
Tonic pattern: Frequency of GABAA PSCs, Mean [2, 5]: 2.9 Hz
basal events between giants, share of the total current charge ([2]; bumetanide 10 μM, 15-30 min, before 62±5%, P=0.0003): 90±3%
area gigantic pattern (% of the total area) / giant GABAA sPSCs share of total current charge, Mean ([2]; bumetanide 10 μM, 15-30 min, P=0.0003): 11.7±3.9%
area gigantic pattern (% of the total area) / giant GABAA sPSCs share of total current charge, Mean ([2]; bumetanide 10 μM, 15-30 min, P=0.0003, listed as Bume): 11.7%
range of amplitude of single giant GABAA sPSCs [2, 6]: 203-593 pA
Giants Amplitude, Mean [2, 6]: 338.2±22.5 pA
Giants Amplitude, Mean ([2]; bumetanide 10 μM, 15-30 min, n=42 events, listed as Bume): 338.2 pA
Giants Frequency, Mean ([2]; bumetanide 10 μM, 15-30 min, table value, unit not given): 0.10
n bursts, Mean [2, 7]: 0.2
n giants (>200 pA), Mean [2, 7]: 5.6
decrease of the mean total current charge ([2]; bumetanide 10 μM, 15-30 min vs before bumetanide, P=0.0002): 49%
number of individual giant GABAA sPSCs still present during the three-minutes sequence analyzed ([2]; bumetanide 10 μM, versus 237 before bumetanide): 42 events

Compound: N[C@@H](Cc1ccc(O)c(O)c1)C(=O)O [L Dopa]
effect on the gigantic current pattern (in words) [3]: alleviate this pattern
